Test results: patent US7776826B2, “Method for fostering bone formation and preservation” (Unigene Laboratories, Inc., priority 2004, dated 2010)

Assays:
Assay type in all cases: in vivo, rat
[1] = system: Male Sprague-Dawley rats; experiment: High resolution radiograms of left and right femurs, Groups K-R; conditions: left femur with bmx, agent daily for 21 days
Excerpt: FIG. 10 (a-b) presents high resolution radiograms of the left and right femurs, respectively, from an additional series of experiments on additional groups of male Sprague-Dawley rats (6 rats per group) aged 9 weeks which were sacrificed and tested after 21 days (3 weeks). The various groups were subjected to the following treatment modalities: Group K—control day 0; Group L—control day 21; Group M—bone marrow ablation (bmx) day 0; Group N—sham day 21; Group O— bmx+phosphate buffer saline (PBS) daily for 21 days; Group P—bmx+PTH[1-34]-NH2 daily for 21 days; Group Q—bmx+ parathyroid hormone related peptide (PTHRP) daily for 21 days; and Group R—bmx+rat α-calcitonin gene related peptide (CGRP) daily for 21 days;
FIG. 10 (a-b) presents a set of high resolution radiograms of the entire left and right femurs of additional (to those described above) groups of rats, injected daily for a designated term with one or more of the following agents: phosphate buffer saline (PBS); parathyroid hormone (PTH[1-34]-NH2); parathyroid hormone related peptide (PTHrP); and calcitonin gene related peptide (CGRP). The rats chosen for test subjects were subjected to the following treatment modalities (as indicated in the lower left corner of each of the radiograms): control day 0; control day 21; bone marrow ablation (bmx) day 0; sham day 21; bmx followed by injection of PBS buffer daily for 21 days; bmx followed by injection of PTH daily for 21 days; bmx followed by injection of PTHrP daily for 21 days; and bmx followed by injection of CGRP daily for 21 days.
As shown by FIG. 10(a), the best results, i.e., the greatest bone density, was obtained in the left femur wherein the effect of the bone marrow ablation overlapped with that attributable to the administration of the various anabolic agents. As in the case of FIG. 3, the lighter, i.e, more radio-opaque, areas indicate the locations of the greatest additional bone growth.

[2] = system: Male Sprague-Dawley rats; experiment: MicroCT analysis of left femoral shafts, Groups A-J; conditions: left femoral shaft with bmx
Excerpt: FIG. 6 illustrates the results of Micro Computerized Tomography (MicroCT) analyses of the left (ablated) femoral shafts of the rats which are the subjects of FIGS. 3-4. The abbreviations mean the same as in FIGS. 3-5;
FIG. 6 illustrates the results of a Micro Computerized Tomography (MicroCT) analysis of representative bones taken from the left femoral shaft of control and treated rats. The modality of treatment is set forth in the lower left corner of each of the views, and the abbreviations used therein are the same as those which appear in FIGS. 3-5. The Figure provides a view through a section of each such bone shaft.
The bones were thereafter subjected to a variety of sample analysis techniques. These included X-ray analysis wherein the femurs were X-rayed in individually sealed plastic bags; PIXIMUS analysis using a Lunar PIXIMUS scanner to measure bone mineral density in the bone marrow cavity of the femurs; MicroCT analysis; and blood analysis for osteocalcin, PTH, CT, NTX and growth factors.

[3] = system: Male Sprague-Dawley rats; experiment: MicroCT analysis of femoral shafts, Groups K-R; conditions: left femoral shaft with bmx, agent for 21 days
Excerpt: FIG. 13(a-b) illustrate the results of Micro Computerized Tomography (MicroCT) analysis of the left (ablated) and right (non-ablated) femoral shafts of the rats of Groups K-R. The abbreviations are the same as those used in FIGS. 10-12;
FIG. 13 (a-b) provides a comparison between Micro Computerized Tomography (MicroCT) analyses of bone samples taken from the left femoral shaft (FIG. 13a) and the right femoral shaft (FIG. 13b) of rats treated in the manner indicated in FIGS. 10-12. As in the other cases discussed above, the most significant amount of new bone growth is found in the shaft of the left femur, since this shaft was subjected to the bmx treatment. […] In contrast, the right femoral shaft sections show very little or no increase in bone growth at all.

[4] = system: Male Sprague-Dawley rats; experiment: Von Kossa stained sections of left femurs subjected to bmx; conditions: left femur with bmx, PTH daily for 21 days
Excerpt: FIG. 8 illustrates sections (at 4× magnification) of undecalcified left femurs, subjected to bone marrow ablation (bmx), wherein the bone sections were stained with Von Kossa stain;
FIG. 8 provides views of stained and […] bone sections of the left femur of representative rats subjected to the following treatment modalities: Control day 0; Control day 21; Sham day 21; bmx day 0; bmx+PBS daily for 7 days; bmx+PBS daily for 14 days; bmx+PBS daily for 21 days; bmx+ parathyroid hormone (PTH[1-34]NH2) daily for 7 days; bmx+PTH daily for 14 days, and bmx+PTH daily for 21 days. […] These views provide substantial additional evidence of the efficacy of the method of the present invention.

[5] = system: osteoporotic female Sprague-Dawley rats; experiment: Lumbar vertebral bone mineral density and bone formation rate in ovariectomized osteoporotic rats, without mechanical induction; conditions: OVX rats, 4 weeks subcutaneous treatment, no mechanical induction
Protocol: FIG. 15 is a bar graph comparing the Lumbar Vertebral Bone Mineral Density obtained in osteoporotic female Sprague-Dawley rats wherein the osteoporosis was induced via an ovariectomy. The rats were treated with (1) PTH[1-31]-NH2; (2) PTH[1-34]-NH2; and PTH[1-34]-OH; and
FIG. 16 is a bar graph comparing the Lumbar Vertebral Bone Formation Rate obtained in osteoporotic female Sprague-Dawley rats wherein the osteoporosis was induced via an ovariectomy. The rats were treated with (1) PTH[1-31]-NH2; (2) PTH[1-34]-NH2; and PTH[1-34]-OH.
A series of experiments was performed comparing (1) lumbar vertebral bone mineral density, and (2) lumbar vertebral bone formation rate achieved with PTH[1-31]-NH2 and PTH[1-34]-OH compared to the preferred PTH[1-34]-NH2 analog discussed above in the absence of the mechanical induction step of the invention. The study involved a four-week treatment of female Sprague-Dawley rats at 10 months of age, and 6 months post-ovariectomy (“OVX”), which induces osteoporosis, with one of the three above-noted parathyroid hormone truncates. The rats were randomized into the following groups: sham OVX, OVX+ vehicle, OVX+PTH [1-31]-NH2 or PTH [1-34]-NH2 (obtained from Unigene Laboratories, Inc.) at 2.5, 10 or 40 μg/kg/day subcutaneous, or PTH[1-34]-OH (obtained from Bachem) at 10 μg/kg/day subcutaneous. After 4 weeks of treatment, the right femur of each animal was analyzed by DEXA and bone histomorphometry. FIG. 15 is a bar graph providing a comparison of the lumbar vertebral bone mineral density achieved with PTH[1-31]-NH2, PTH[1-34]-NH2 and PTH[1-34]-OH. FIG. 16 is a bar graph comparing the lumbar vertebral formation rates achieved with these same truncates. […] Because of the similarity of anabolic action among the above-discussed parathyroid hormones, it is therefore reasonable to expect that all known PTH analogs will advantageously function in the desired manner in the method of the present invention.

PTH[1-34]-NH2
bone density on radiograms, in words [1]: best results | new bone growth in MicroCT, in words [2]: most extensive new bone growth | new bone growth in MicroCT, in words [3]: significant degree of improvement | bone growth within marrow cavity on stained sections, in words [4]: greatest such increase | bone anabolic activity (lumbar vertebral bone mineral density and bone formation rate) [5]: substantially equivalent
